In patent publication US8207361B2, “Tigecycline crystalline forms and processes for preparation thereof” (Teva Pharmaceutical Industries Ltd., priority 2006, dated 2012):

Test: Exposure of crystalline form to about 100% room humidity, crystal form monitored by XRD
Format: physicochemical
Details: after exposure to about 100% RH for about 7 days at about room temperature, Form I prepared from ethyl acetate (about 80 mg)
Text: A round aluminum sample holder with zero background was used.

- Crystal form: Amorphous
Compound: CN(C)c1cc(NC(=O)CNC(C)(C)C)c(O)c2c1C[C@H]1C[C@H]3[C@H](N(C)C)C(O)=C(C(N)=O)C(=O)[C@@]3(O)C(O)=C1C2=O [Form I, (4S,4aS,5aR,12aS)-9-(2-(tert-butylamino)acetamido)-4,7-bis(dimethylamino)-1,4,4a,5,5a,6,11,12a-octahydro-3,10,12,12a-tetrahydroxy-1,11-dioxo-2-naphthacenecarboxamide]
